Test system: oral mucositis induced by fractionated radiation (eight doses of 7.5 Gy, left buccal cheek pouch)
Assay: Oral mucositis induced by fractionated radiation in hamsters, mucositis scoring (Example 3, SCI-03)
Assay type: in vivo, Syrian Golden Hamsters
Set-up: key: 0: Pouch completely healthy. No erythema or vasodilation.; 1: Light to severe erythema and vasodilation. No erosion of mucosa.; 2: Severe erythema and vasodilation. Erosion of superficial aspects of mucosa leaving denuded areas, but no frank ulceration. Decreased stippling of mucosa.; 3: Formation of off-white ulcers in one or more places. Ulcers may have a yellow/gray due to pseudomembrane. Cumulative size of ulcers should equal about ¼ of the pouch. Severe erythema and vasodilation.; 4: Cumulative seize of ulcers should equal about ½ of the pouch. Loss of pliability. Severe erythema and vasodilation.; 5: Virtually all of pouch is ulcerated. Loss of pliability (pouch can only partially be extracted from mouth)
Description: The fractionated radiation model in hamsters, developed by the Principal Investigator, has proven to be an accurate, efficient and cost-effective technique to provide a preliminary evaluation of anti-mucositis compounds. In this model, hamsters receive 8 doses of 7.5 Gy to the left cheek pouch on days 0, 1, 2, 3, […], rather than the single dose of 40 Gy on day 0 that is used in acute radiation studies. The rationale for using this scheduling for the radiation is that it more closely resembles the clinical courses of radiotherapy given to cancer patients. The course of mucositis in this model is well defined and results in peak mucositis scores approximately 14-16 days following radiation. Mortality (generally from the side effects of anesthesia) in the fractionated radiation model is slightly higher than that seen in the acute radiation model and group sizes are increased (to 10 per group) to allow for this.
(§1) Forty (40) male Syrian Golden Hamsters were given eight doses of radiation of 7.5 Gy each directed to their left buccal cheek pouch on days 0, 1, 2, 3, 6, 7, 8 and 9. This was accomplished by anesthetizing the animals and everting the left buccal pouch, while protecting the rest of the animal's bodies with a lead shield. Test materials were given by sub-cutaneous injection once daily as detailed in Table 9. Mucositis was evaluated clinically starting on day 7, and continuing on alternate days until day 35. Test articles were given as outlined Table 9, Groups 1 and 2 were dosed from Day −1 to Day 29, Group 3 was dosed on the days of radiation only, Group 4 was dosed on the days between Day −15 and Day 29 on which no radiation is given (Day −1, Day 4, Day 5 and Day 10 to Day 29).
The effect on mucositis of each drug treatment compared to placebo was assessed according to the following parameters:
On each evaluation day, the number of animals with a blinded mucositis score of ≧3 in each drug treatment group was compared to the control group. Differences were compared on a cumulative basis and statistical significance was determined by chi-square analysis. Efficacy, in this analysis, is defined by a significant reduction in the number of days that a group of animals had ulcerations (scores ≧3) when compared to the control group.
For each evaluation day the scores of the control group were compared to those of the treated groups using non-parametric rank sum analysis. Treatment success was considered as a statistically significant lowering of scores in the treated group on 2 or more days from day 6 to day 28.
as §1, with “daily at 8:00 am” for “daily”, “9. […]” for “9. Mucositis was evaluated clinically starting on day 7, and continuing on alternate days until day 35.”, “2 was” for “2 were”, “radiation only (days 0-3 and days 6-10),” for “radiation only,”, “Day −1” for “Day −15”, “Day 4 to” for “Day 4,”
Radiation was generated with a Philips 160 kVp (kilovolt potential) (18.75-ma) X-ray source at a focal distance of 30 cm, with a 3.0 mm hardened Al filtration system. Irradiation was targeted to the left buccal pouch mucosa at a rate of 3.32 Gy/minute. […] Using this calibration, the energy received by each animal at each radiation dose was approximately 64.5 nC (nanoCoulombs) at each time point. Prior to irradiation, animals were anesthetized with an intraperitoneal injection of ketamine (160 mg/kg) and xylazine (8 mg/kg). The left buccal pouch was everted, fixed and isolated using a lead shield.
The mucositis score, weight change and survival were measured throughout the study as described above. […]

Measured: Mucositis score

N[C@H](CCC(=O)N[C@@H](Cc1c[nH]c2ccccc12)C(=O)O)C(=O)O [SCV-07, γ-D-glutamyl-L-tryptophan]
2: Group 2, day 13, individual animals (two score lines each) | Group 2, day 23, individual animals (two score lines each) | Group 2, day 25, individual animals (two score lines each) | Group 2, day 27, individual animals (two score lines each) | Group 2, day 31, individual animals (two score lines each) | Group 2, day 33, individual animals (two score lines each)

From patent US7906486B2, “Method of treating or preventing tissue deterioration, injury or damage due to disease of mucosa” (SciClone Pharmaceuticals, Inc., priority 2007, dated 2011)
